Assays:
[1] = tested on: neonatal rat ventricular myocytes; assay: Hypertrophy of cultured neonatal rat ventricular myocytes (cross-section area, ANF expression); format: cell-based; details: for agonist-induced myocyte hypertrophy: pan-RSK inhibitors, neonatal myocytes
Procedure: Neonatal rat myocytes isolation and culture: 1-3 day old Sprague-Dawley rats were decapitated and the excised hearts placed in 1×ADS Buffer (116 mmol/L NaCl, 20 mmol/L HEPES, 1 mmol/L NaH2PO4, 5.5 mmol/L glucose, 5.4 mmol/L KCl, 0.8 mmol/L MgSO4, pH 7.35). The atria were carefully removed and the blood washed away. The ventricles were minced and incubated with 15 mL 1×ADS Buffer containing 3.3 mg type II collagenase (Worthington, 230 U/mg) and 9 mg Pancreatin (Sigma) at 37° C. while shaking at 80 RPM. After 15 minutes, the dissociated cardiac myocytes were separated by centrifugation at 50×g for 1 minute, resuspended in 4 mL horse serum and incubated 37° C. with occasional agitation. The steps for enzymatic digestion and isolation of myocytes were repeated 10-12 times to maximize yield. The myocytes were pooled and spun down again at 50×g for 2 minutes and resuspended in Maintenance Medium (DMEM:M199, 4:1) supplemented with 10% horse serum and 5% fetal bovine serum. To remove any contaminating fibroblasts, the cells were pre-plated for 1 hour before plating on gelatin-coated tissue culture plasticware. This procedure yields >90% pure cardiac myocytes. After 1 day in culture, the media was changed to maintenance medium containing 0.1 mmol/L bromodeoxyuridine to suppress fibroblast growth.
Experiments were initiated 1 day after myocyte isolation. Adenoviral infection was performed by addition of adenovirus (multiplicity of infection=5-50) to the media. Plasmids and siRNA oligonucleotides were transfected using Transfast (Promega) and Dharmafect (Thermofisher), respectively, as recommended by the manufacturers using cells cultured in maintenance medium supplemented with 4% horse serum. Starting the day after gene transduction, the cells were treated for as long as 2 days, as indicated for each experiment. […]
Morphometry: Morphometric data was acquired using IPLab Software. […] For adult mouse cardiac myocytes, the maximum lengths perpendicular (width) or parallel (length) to the myofibrils were measured for >100 freshly dissociated myocytes per heart.

RSK = RSK activation in neonatal rat ventricular myocytes (pan-RSK S218 phospho-specific antibody); format: cell-based; details: α-adrenergic stimulation, MEK1/2- and MEK5-dependent
Text: RSK family members can be activated in most cell types by ERK, but not c-Jun N-terminal kinases or p38 (Anjum 2008). ERK phosphorylation is permissive for PDK1 phosphorylation of the RSK N-terminal kinase domain, such that PDK1 phosphorylation of RSK S^218 is indicative of full activation of the enzyme (FIG. 4A of U.S. Pat. No. 9,132,174). […] The α-adrenergic stimulation with phenylephrine (PE) induced RSK phosphorylation 3-fold by both MEK1/2-dependent (that activates ERK1/2) and MEK5-dependent (that activates ERK5) mechanisms (FIG. 22 of U.S. Pat. No. 9,132,174).

[2] = tested on: Noonan syndrome mouse model; details: Wu 2011; cited from earlier work
NHE1 = details: Cuello 2007; cited from earlier work
RSK3 and mAKAPβ = assay: Co-immunoprecipitation of endogenous RSK3 with mAKAPβ in neonatal myocytes; format: cell-based, rat; details: expressed in neonatal myocytes
Procedure: Immunoprecipitations: HEK293 and COS-7 cells were transfected with Lipofectamine 2000 (Invitrogen) or Polyethylenimine “Max” (Polysciences). Cells (including myocytes) were lysed in buffer (20 mmol/L HEPES, pH 7.4, 150 mmol/L NaCl, 5 mmol/L EDTA, 0.5% Triton, 50 mmol/L NaF, 1 mmol/L sodium orthovanadate, 1 mmol/L DTT, and protease inhibitors). After centrifugation at 10,000×g for 10 minutes at 4° C., the clarified extracts were used for immunoprecipitation using appropriate antibodies (10 μg purified antibody or 1-5 μL whole serum) and 20 μL protein G sepharose (Millipore, Fastflow) for 3 hours to overnight at 4° C. The beads were washed 3-5 times with lysis buffer, and the immunoprecipitated proteins were eluted with 1× Laemmli buffer for western blotting. Western blots were developed using horseradish peroxidase-conjugated donkey secondary antibodies, Supersignal West Chemiluminescent Substrates (Thermo Scientific) and X-ray film or a Fujifilm LAS-3000 imaging system.
B. Transfected myocytes expressing GFP or GFP-RBD (green) were stained with α-actinin (blue) and ANF (red) antibodies. Bar=20 μm. C. Cross-section area of myocytes. n=5. D. Fraction of myocytes expressing ANF. n=3. * p-values comparing to GFP-expressing samples. † p-values comparing to no agonist control.

wildtype mice = assay: Transverse aortic constriction (2 week TAC) after AAV9 injection; format: in vivo, mouse; details: AAV9 injected into neonatal mice, 2 week TAC at 8 weeks of age
Text: Transverse Aortic Constriction: All tools were sterilized with a Germinator 500 Dry Sterilizer and Betadine Solution (10% povidone-iodine topical solution). Anesthesia was induced with 5% isoflurane and maintained with 2% isoflurane and 100% oxygen at a flow rate of 1.5 L/min using a SurgiVet flow regulator via nose cone. Loss of consciousness was verified by toe pinch. Mouse fur over the left chest and sternum was removed with a calcium hydroxide lotion (e.g. Nair), and the surgical site was sterilized with betadine. The skin was incised exposing the pectoralis muscle and the second left intercostal space. […] The lobes of the thymus were retracted to reveal the transverse aortic arch as well as the right innominate and left common carotid arteries. […]
Echocardiography: Mice minimally anesthetized with 1-2% isoflurane were studied using a Vevo 770®, High-Resolution Imaging System (VisualSonics). The pressure gradient following TAC was calculated from the pulse wave Doppler velocity at the point of ligation as follows: P=4v^2; P=the induced pressure gradient (in mmHg) and v=the velocity across the constriction (in m/s).^7
AAV9 containing the indicated CIS plasmid encoding myc-GFP-mAKAP 1694-1833 were injected into neonatal wildtype mice. 2 week TAC was performed and analyzed as above at 8 weeks of age. […]

Molecule: CC(=O)OC1C(C)OC(Oc2c(-c3ccc(O)cc3)oc3cc(O)cc(O)c3c2=O)C(O)C1OC(C)=O (centres unmarked) [SL0101]
- agonist-induced myocyte hypertrophy [1]: inhibited

Molecule: CC(C)CCN1c2nc(Nc3cc(F)c(O)c(F)c3)ncc2N(C)C(=O)C1C (centres unmarked) [BI-D1870]
- agonist-induced myocyte hypertrophy [1]: inhibited

Molecule: CNC[C@H](O)c1cccc(O)c1 [phenylephrine]
- RSK phosphorylation induced (RSK): 3 fold

Molecule: O=C(NOC[C@H](O)CO)c1ccc(F)c(F)c1Nc1ccc(I)cc1F [PD0325901]
- progression of cardiac hypertrophy cardiomyopathy and other Noonan characteristics [2]: attenuated progression

Molecule: Cc1ccc(-c2c(C(=O)CF)n(CCCO)c3ncnc(N)c23)cc1 [fmk]
- α-adrenergic-induced NHE1 phosphorylation (NHE1): blocked

B1: green fluorescent protein—mAKAP RBD fusion protein: GFP fused to the mAKAP RSK3 binding domain (mAKAP residues 1694 to 1833), an anchoring disruptor (protein)
chain: ELSLCSEDIVLHKNKIPESNASFRKRLNRSVADESDVNVSMIVNVSCTSACTDDEDDSDLLSSSTLTLTEEELCLKDEDDDSSIATDDEIYEESNLMSGLDYIKNELQTWIRPKLSLTREKKRSGVTDEIKVNKDGGGNE
modifications: left off: small tags and cut ends; large carriers
- PE-induced hypertrophy ([1]; expressed in neonatal myocytes, phenylephrine): markedly inhibited
- association of endogenous RSK3 and mAKAPβ (RSK3 and mAKAPβ): competed the association

B2: myc-GFP-mAKAP 1694-1833: myc-GFP-tagged mAKAP 1694-1833 expressed in vivo from AAV9 (protein)
chain: B1 chain
modifications: left off: small tags and cut ends; large carriers
notes: myc-GFP-tagged mAKAP 1694-1833 expressed in vivo from AAV9
- concentric hypertrophy in vivo in the adult heart (wildtype mice): inhibited concentric hypertrophy

Source: patent US10907153B2, “Treatment of heart disease by inhibtion of the action of muscle A-kinase anchoring protein (mAKAP)” (priority 2017, dated 2021)
